Test results reported in article PMC6704710, “Preclinical evaluation of 3D185, a novel potent inhibitor of FGFR1/2/3 and CSF-1R, in FGFR-dependent and macrophage-dominant cancer models” (Journal of Experimental & Clinical Cancer Research : CR, 2019).

How the values were obtained:
Assay in all cases: Eurofins kinase panel
Type in all cases: biochemical
[1] = biological target: T1, Met(M1268T)(h) (Homo sapiens, UniProt P08581, M1250T); details: read-out: Inhibition rate (%)
T1 construct: purchased Eurofins (KinaseProfiler)

[2] = biological target: T2, EphA1(h) (Homo sapiens, UniProt P21709); details: read-out: Inhibition rate (%)
T2 construct: purchased Eurofins (KinaseProfiler)
T2 sequence (P21709 26-976): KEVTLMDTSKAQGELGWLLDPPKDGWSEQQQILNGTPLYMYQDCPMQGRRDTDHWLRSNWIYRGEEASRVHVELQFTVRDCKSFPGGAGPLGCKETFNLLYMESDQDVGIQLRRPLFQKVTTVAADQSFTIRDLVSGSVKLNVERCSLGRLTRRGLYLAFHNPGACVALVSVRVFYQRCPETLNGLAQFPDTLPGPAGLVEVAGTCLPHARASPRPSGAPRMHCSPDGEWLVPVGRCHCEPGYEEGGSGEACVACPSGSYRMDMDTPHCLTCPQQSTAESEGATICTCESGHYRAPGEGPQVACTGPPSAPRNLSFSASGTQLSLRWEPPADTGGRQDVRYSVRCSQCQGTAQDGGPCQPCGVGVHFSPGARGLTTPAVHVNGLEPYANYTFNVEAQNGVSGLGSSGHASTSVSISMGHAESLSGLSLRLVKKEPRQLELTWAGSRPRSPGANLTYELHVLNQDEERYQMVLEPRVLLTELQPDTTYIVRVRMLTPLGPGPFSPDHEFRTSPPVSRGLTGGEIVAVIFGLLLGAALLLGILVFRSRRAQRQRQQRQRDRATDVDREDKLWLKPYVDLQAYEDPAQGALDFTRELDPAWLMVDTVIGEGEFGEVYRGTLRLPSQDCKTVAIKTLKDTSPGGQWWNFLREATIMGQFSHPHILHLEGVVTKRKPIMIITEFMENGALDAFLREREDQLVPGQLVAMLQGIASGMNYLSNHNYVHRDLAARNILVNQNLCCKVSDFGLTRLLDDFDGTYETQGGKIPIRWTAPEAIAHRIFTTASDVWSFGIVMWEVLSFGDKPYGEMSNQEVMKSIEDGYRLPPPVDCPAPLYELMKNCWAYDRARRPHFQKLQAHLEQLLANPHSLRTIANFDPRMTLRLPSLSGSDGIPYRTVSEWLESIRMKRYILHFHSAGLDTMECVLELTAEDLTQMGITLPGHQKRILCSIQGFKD

[3] = test system: ROCK-II(r)
[4] = biological target: T3, CDK1/cyclinB(h) (Homo sapiens, UniProt P06493); details: read-out: Inhibition rate (%)
T3 construct: purchased Eurofins (KinaseProfiler)

[5] = biological target: T4, CDK2/cyclinA(h) (Homo sapiens, UniProt P24941); details: read-out: Inhibition rate (%)
T4 construct: purchased Eurofins (KinaseProfiler)

[6] = biological target: T5, Fer(h) (Homo sapiens, UniProt P16591); details: read-out: Inhibition rate (%)
T5 construct: purchased Eurofins (KinaseProfiler)

[7] = biological target: T6, Hck(h) activated (Homo sapiens, UniProt P08631); details: read-out: Inhibition rate (%)
T6 construct: purchased Eurofins (KinaseProfiler)

[8] = biological target: T7, DYRK3(h) (Homo sapiens, UniProt O43781); details: read-out: Inhibition rate (%)
T7 construct: purchased Eurofins (KinaseProfiler)
T7 sequence (O43781 1-588): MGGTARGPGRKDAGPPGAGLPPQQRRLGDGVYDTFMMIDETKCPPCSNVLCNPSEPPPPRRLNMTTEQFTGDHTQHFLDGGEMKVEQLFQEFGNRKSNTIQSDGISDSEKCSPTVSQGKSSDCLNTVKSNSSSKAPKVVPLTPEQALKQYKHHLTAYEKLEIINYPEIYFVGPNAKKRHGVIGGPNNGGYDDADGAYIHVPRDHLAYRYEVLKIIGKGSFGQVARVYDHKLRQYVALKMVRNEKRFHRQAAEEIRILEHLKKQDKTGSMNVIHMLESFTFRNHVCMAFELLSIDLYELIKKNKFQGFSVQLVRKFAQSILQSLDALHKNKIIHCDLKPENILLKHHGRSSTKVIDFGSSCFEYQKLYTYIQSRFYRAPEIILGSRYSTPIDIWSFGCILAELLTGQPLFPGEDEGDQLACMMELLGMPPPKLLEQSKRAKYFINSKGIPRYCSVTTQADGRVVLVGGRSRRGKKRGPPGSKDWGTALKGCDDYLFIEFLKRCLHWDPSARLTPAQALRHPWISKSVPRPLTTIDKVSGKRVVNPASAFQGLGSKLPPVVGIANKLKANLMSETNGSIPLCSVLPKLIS

[9] = biological target: T8, CDK5/p35(h) (Homo sapiens, UniProt Q00535); details: read-out: Inhibition rate (%)
T8 construct: purchased Eurofins (KinaseProfiler)

[10] = biological target: T9, DDR1(h) (Homo sapiens, UniProt Q08345); details: read-out: Inhibition rate (%)
T9 construct: purchased Eurofins (KinaseProfiler)

[11] = biological target: T10, NIM1(h) (Homo sapiens, UniProt Q8IY84); details: read-out: Inhibition rate (%)
T10 construct: purchased Eurofins (KinaseProfiler)

[12] = biological target: T11, EGFR(T790M,L858R)(h) (Homo sapiens, UniProt P00533, L858R/T790M); details: read-out: Inhibition rate (%)
T11 construct: purchased Eurofins (KinaseProfiler)

[13] = biological target: T12, Tie2(R849W)(h) (Homo sapiens, UniProt Q02763, R849W); details: read-out: Inhibition rate (%)
T12 construct: purchased Eurofins (KinaseProfiler)

T6 sequence (P08631 whole entry): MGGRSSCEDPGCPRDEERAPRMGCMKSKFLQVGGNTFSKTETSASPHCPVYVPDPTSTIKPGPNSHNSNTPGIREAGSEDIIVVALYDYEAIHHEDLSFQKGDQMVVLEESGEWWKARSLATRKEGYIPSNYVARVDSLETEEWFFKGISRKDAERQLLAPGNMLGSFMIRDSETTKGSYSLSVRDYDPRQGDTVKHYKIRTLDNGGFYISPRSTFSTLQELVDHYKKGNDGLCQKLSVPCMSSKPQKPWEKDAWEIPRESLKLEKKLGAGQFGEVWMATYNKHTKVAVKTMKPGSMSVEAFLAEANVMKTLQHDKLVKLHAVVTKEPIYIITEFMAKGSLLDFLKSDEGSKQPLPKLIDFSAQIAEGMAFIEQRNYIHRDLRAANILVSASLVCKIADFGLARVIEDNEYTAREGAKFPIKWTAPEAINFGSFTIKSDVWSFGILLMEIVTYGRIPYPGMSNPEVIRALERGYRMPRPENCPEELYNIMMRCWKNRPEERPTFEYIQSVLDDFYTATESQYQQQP
T8 sequence (Q00535 whole entry): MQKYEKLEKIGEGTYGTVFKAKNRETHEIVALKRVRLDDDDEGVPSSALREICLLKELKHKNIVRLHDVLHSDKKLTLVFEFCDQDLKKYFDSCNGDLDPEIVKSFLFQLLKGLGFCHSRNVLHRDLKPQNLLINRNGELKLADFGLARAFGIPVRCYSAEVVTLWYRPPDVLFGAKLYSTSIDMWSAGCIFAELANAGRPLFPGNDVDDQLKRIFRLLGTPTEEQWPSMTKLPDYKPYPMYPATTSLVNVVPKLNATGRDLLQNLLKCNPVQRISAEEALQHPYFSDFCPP
T8 sequence (Q15078 whole entry partner): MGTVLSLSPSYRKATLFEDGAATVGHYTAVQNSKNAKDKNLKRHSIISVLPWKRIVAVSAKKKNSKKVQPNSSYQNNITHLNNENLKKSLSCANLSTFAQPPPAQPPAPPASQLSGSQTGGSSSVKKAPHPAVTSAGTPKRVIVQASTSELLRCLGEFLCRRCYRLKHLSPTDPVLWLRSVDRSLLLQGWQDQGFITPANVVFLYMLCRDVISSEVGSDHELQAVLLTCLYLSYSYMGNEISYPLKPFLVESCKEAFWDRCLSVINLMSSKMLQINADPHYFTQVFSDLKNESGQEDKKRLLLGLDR
T10 sequence (Q8IY84 whole entry): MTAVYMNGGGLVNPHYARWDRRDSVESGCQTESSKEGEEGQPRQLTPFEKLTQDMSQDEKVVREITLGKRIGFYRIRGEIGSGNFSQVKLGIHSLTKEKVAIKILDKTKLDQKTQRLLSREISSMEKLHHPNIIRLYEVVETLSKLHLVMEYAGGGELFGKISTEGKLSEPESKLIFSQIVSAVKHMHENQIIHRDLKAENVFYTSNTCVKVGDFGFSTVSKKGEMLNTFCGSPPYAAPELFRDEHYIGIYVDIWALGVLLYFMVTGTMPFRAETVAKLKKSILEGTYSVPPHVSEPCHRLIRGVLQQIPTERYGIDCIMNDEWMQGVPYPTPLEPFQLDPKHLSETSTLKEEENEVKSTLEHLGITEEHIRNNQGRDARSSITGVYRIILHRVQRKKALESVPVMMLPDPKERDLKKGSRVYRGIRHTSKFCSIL
T11 sequence (P00533 25-1210 T790M/L858R): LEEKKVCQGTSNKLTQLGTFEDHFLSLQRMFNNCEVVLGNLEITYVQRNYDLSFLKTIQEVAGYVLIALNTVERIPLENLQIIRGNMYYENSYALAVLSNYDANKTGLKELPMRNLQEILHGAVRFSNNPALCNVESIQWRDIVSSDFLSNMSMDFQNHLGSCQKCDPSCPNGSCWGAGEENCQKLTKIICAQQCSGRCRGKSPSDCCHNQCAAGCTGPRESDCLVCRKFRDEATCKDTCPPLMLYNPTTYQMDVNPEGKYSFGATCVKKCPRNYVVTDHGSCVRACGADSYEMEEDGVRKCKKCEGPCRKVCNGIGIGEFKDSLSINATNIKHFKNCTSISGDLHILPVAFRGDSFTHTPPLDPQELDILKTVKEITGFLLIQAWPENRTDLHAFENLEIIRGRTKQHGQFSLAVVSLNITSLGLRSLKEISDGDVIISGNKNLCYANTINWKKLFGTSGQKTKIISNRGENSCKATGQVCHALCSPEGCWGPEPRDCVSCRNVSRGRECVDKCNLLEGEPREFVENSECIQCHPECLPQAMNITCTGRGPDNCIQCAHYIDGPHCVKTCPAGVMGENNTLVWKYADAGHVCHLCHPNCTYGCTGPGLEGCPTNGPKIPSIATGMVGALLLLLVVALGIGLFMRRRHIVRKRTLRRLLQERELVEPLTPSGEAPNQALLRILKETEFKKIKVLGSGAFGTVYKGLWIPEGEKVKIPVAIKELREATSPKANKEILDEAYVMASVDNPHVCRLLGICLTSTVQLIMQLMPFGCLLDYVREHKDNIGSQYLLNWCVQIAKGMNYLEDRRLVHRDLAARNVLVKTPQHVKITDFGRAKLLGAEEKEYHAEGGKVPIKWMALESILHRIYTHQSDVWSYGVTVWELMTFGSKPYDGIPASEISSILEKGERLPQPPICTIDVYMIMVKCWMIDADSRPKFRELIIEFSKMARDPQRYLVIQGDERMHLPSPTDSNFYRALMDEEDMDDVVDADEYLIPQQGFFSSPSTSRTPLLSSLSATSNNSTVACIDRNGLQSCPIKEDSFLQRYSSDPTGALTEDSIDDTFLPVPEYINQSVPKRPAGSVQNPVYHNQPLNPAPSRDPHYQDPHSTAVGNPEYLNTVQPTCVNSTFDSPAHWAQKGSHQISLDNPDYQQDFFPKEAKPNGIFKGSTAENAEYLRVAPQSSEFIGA
T1 sequence (P08581 956-1390 M1250T limits assumed): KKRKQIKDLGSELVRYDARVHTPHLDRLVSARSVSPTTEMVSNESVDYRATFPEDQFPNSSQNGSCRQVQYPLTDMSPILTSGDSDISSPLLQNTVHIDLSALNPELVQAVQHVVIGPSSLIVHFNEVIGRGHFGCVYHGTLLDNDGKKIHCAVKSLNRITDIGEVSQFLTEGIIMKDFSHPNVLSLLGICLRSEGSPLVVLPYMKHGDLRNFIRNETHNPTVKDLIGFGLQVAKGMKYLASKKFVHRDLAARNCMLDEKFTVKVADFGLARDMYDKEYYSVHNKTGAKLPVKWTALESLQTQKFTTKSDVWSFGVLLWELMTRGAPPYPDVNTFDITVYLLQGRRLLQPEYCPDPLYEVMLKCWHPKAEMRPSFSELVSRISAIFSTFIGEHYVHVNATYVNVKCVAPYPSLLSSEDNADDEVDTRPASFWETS
T5 sequence (P16591 whole entry): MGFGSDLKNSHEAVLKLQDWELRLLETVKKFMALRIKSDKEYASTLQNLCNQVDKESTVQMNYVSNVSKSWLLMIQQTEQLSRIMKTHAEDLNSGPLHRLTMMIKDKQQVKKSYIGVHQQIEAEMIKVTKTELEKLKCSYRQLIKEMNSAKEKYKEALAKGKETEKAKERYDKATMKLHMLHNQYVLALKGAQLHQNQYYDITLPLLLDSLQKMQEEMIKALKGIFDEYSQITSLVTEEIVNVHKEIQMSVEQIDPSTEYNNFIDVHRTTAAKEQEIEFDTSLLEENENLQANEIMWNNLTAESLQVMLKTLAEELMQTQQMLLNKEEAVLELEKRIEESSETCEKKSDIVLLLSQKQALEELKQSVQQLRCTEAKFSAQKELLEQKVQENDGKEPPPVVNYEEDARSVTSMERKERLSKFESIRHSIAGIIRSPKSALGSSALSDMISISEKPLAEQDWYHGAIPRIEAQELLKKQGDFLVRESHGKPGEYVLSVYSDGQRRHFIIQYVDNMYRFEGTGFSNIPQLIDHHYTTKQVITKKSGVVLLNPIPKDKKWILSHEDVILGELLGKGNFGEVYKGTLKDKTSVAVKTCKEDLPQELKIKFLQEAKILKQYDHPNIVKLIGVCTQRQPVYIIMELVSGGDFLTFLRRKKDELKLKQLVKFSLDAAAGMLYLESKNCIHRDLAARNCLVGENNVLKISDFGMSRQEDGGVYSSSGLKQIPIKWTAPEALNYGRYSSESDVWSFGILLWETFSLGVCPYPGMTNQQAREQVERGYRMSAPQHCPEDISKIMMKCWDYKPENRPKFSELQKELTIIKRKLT
T9 sequence (Q08345 19-913): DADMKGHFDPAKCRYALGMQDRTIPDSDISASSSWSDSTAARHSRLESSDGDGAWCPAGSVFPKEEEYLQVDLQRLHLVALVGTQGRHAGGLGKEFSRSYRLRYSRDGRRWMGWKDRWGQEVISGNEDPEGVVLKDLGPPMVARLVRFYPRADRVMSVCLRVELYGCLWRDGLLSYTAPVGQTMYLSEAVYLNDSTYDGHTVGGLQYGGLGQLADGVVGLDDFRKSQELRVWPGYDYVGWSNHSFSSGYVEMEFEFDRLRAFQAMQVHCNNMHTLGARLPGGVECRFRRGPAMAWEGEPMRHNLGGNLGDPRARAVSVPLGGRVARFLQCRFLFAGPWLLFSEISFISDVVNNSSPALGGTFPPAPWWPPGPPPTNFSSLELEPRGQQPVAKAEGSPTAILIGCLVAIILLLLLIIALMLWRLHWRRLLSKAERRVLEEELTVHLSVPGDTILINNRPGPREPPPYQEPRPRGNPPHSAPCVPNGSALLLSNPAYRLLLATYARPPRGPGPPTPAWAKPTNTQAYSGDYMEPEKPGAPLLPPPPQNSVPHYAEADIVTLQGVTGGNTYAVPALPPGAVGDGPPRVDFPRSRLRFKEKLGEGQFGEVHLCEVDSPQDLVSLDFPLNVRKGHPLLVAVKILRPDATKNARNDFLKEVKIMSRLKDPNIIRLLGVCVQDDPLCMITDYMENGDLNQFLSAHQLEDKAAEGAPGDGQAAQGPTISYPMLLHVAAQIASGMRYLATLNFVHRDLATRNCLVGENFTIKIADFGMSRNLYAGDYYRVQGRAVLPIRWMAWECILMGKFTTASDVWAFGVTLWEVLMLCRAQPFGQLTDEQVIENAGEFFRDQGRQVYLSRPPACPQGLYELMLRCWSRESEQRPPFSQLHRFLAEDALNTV

Structure (SMILES): COc1cc(OC)c(Cl)c(-c2ccc3c(NC(=O)c4ccc(N5CCNC(C)(C)C5)cc4)n[nH]c3n2)c1Cl [3D185]
- inhibition at 0.01 µM ([1]; 10 nM): -12%
- inhibition at 0.1 µM ([1]; 100 nM): -11%
- inhibition at 1 µM ([1]; 1000 nM): 15%
- inhibition at 0.01 µM ([2]; 10 nM): 0%
- inhibition at 0.1 µM ([2]; 100 nM): -14%
- inhibition at 1 µM ([2]; 1000 nM): -6%
- Inhibition rate (%) ([3]; 10 nM): -3%
- Inhibition rate (%) ([3]; 100 nM): 0%
- Inhibition rate (%) ([3]; 1000 nM): -1%
- inhibition at 0.01 µM ([4]; 10 nM): 0%
- inhibition at 0.1 µM ([4]; 100 nM): 2%
- inhibition at 1 µM ([4]; 1000 nM): -11%
- inhibition at 0.01 µM ([5]; 10 nM): 2%
- inhibition at 0.1 µM ([5]; 100 nM): 7%
- inhibition at 1 µM ([5]; 1000 nM): -3%
- inhibition at 0.01 µM ([6]; 10 nM): -11%
- inhibition at 0.1 µM ([6]; 100 nM): 0%
- inhibition at 1 µM ([6]; 1000 nM): 42%
- inhibition at 0.01 µM ([7]; 10 nM): 6%
- inhibition at 0.1 µM ([7]; 100 nM): 44%
- inhibition at 1 µM ([7]; 1000 nM): 87%
- inhibition at 0.01 µM ([8]; 10 nM): -24%
- inhibition at 0.1 µM ([8]; 100 nM): -31%
- inhibition at 1 µM ([8]; 1000 nM): -27%
- inhibition at 0.01 µM ([9]; 10 nM): 19%
- inhibition at 0.1 µM ([9]; 100 nM): 17%
- inhibition at 1 µM ([9]; 1000 nM): 12%
- inhibition at 0.01 µM ([10]; 10 nM): 6%
- inhibition at 0.1 µM ([10]; 100 nM): 27%
- inhibition at 1 µM ([10]; 1000 nM): 64%
- inhibition at 0.01 µM ([11]; 10 nM): -9%
- inhibition at 0.1 µM ([11]; 100 nM): 0%
- inhibition at 1 µM ([11]; 1000 nM): 0%
- inhibition at 0.01 µM ([12]; 10 nM): 6%
- inhibition at 0.1 µM ([12]; 100 nM): 38%
- inhibition at 1 µM ([12]; 1000 nM): 79%
- inhibition at 0.01 µM ([13]; 10 nM): -6%
- inhibition at 0.1 µM ([13]; 100 nM): 39%
- inhibition at 1 µM ([13]; 1000 nM): 86%
